The nature of data set [1]: Cytotoxic assay (XTT cell viability). The format is cell-based. Conditions: human, uninfected Huh-7 cells, read-out: CC50 (concentration of the compound causing a 50% growth inhibition of uninfected Huh-7 cells). Here is the method: (§1) Figure 5 In vitro anti-DENV2 assay for 1–4. (A) DENV2-infected/uninfected Huh-7 cells were incubated with celastrol (Cela, 0.2 μM, positive control) or indicated concentrations of 1–4 (5 to 25 μM) for 72 h. Total DENV2 RNA expression (%) was extracted and quantified. The DENV2 RNA level was measured by RT-qPCR. The DENV2 RNA expression was normalized by cellular GAPDH mRNA. (B) DENV2-infected Huh-7 cells were treated with 10 μM of 1–4. The NS2B protein expression was analyzed by western blotting with anti-NS2B and anti-GAPDH antibodies (a loading control). (C) The cell viability (%) was determined by the XTT method. Treatment with 0.1% DMSO served as a mock control. The results are expressed as the means ± standard errors of the means (SEM) of triplicate experiments.
In structural elucidation, the optical rotations were determined using a JASCO P-1020 polarimeter (Jasco Co., Tokyo, Japan); the ultraviolet spectra (UV) were recorded on a JASCO V530 UV/VIS spectrophotometer; the circular dichroism spectroscopy (CD) were recorded on a JASCO J-815 spectrophotometer; the infrared spectra (IR) were recorded on a Mattson Genesis II FT-IR spectrophotometer (Thermo Nicolet, Madison, WI, USA); electrospray ionization mass (ESIMS) and high-resolution ESIMS data were measured using a VG Biotech Quattro 5022 mass spectrometer (VG Biotech, UK); nuclear magnetic resonance (NMR) spectra were collected on a Varian Unity Inova-400 MHz NMR system; the single crystal X-ray diffraction of pure compounds was determined by Bruker APEX II X-ray single crystal diffractometer. In chemical isolation and separation, column chromatography (CC) was applied including silica gel 60 (70–230 and 230–400 mesh, Merck, Darmstadt, Germany), Sephadex LH-20 (Pharmacia), and pre-coated silica gel TLC plates (aluminum Merck Silica gel 60 F254). […] In biological evaluation, cell viability/cytotoxicity assay was evaluated using CellTiter 96 AQueous One Solution Cell Proliferation Assay (Promega, Madison, WI, USA) according to the manufacturer’s instructions, where the color intensity was detected at 490 nm using a 550 BioRad plate-reader for determining the number of viable cells in proliferation. Computational modeling analyzed by PyMOL 2.0 software (creator is Warren L. DeLano; published by Schrödinger, Inc. 2017; and the latest vision is PyMOL 2.5 vision).
Huh-7 cells were seeded in 96-well plates at a density 5 × 10^4 cells/well in 120 μL of culture medium and incubated for 6 hr in a humidified CO2 (5%) atmosphere. […] Then, the XTT method was applied to cell viability evaluation: cells were dyed by 2,3-bis(2-methyloxy-4-nitro-5-sulfophenyl)-2H-tetrazolium-5-carboxanilide and recorded by an enzyme-linked immunosorbent assay (ELISA) plate reader (at UV 490 nm). […]

The subject of the next data set is DENV2. Description: In vitro anti-DENV2 post-infection assay: DENV2 RNA level by RT-qPCR in DENV2-infected Huh-7 cells. The format is cell-based, DENV serotype 2 (strain 16681). Conditions: for SI (selectivity index, SI = CC50/IC50): CC50 in uninfected Huh-7 cells / IC50 against DENV2; for IC50 / EC50: Dengue virus; for IC50: DENV2, Huh-7, 72 h, read-out: IC50 (concentration of the compound resulting in a 50% inhibition in virus production); for EC50: DENV2-infected Huh-7 cells, range over compounds 1–4. The procedure: Concerning their biological activity, the anti-DENV2 activity of polyalongarins A–D (1–4) was examined using post-infection assay. The DENV2-infected Huh-7 cells were incubated with each of 1–4 at a concentration of 5, 10, or 20 μM for 72 hrs (0.2 μM celastrol and 0.1% DMSO served as positive control and mock control, respectively). […] Based on previous reports, a compound that diminishes the DENV activity by 90% but presents a 50% cytotoxic concentration (CC50) > 15 μM is considered a “hit”. By this definition, compounds 1–4 are good hits without doubt.
as §1
Huh-7 human liver carcinoma cell line, purchased from Bioresources Collection and Research Center, Taiwan, were maintained in Dulbecco’s modified Eagle’s medium (DMEM) supplemented with 10% fetal bovine serum (FBS), 1% non-essential amino acids (NEAA), and 1% penicillin and streptomycin at 37 °C in a humidified 5% CO2 incubator. The DENV serotype 2 (strain 16681) was directly from the Centers for Disease Control, Department of Health, Taiwan, and was amplified in Aedes albopictus C6/36 cell line (CRL-1660, ATCC, USA). C6/36 cells were cultured in RPMI 1640 medium supplemented with 2% FBS. Huh-7 cells were seeded at a density of 5 × 10^4 cells/mL in the 24-well plate for 16–20 h and then infected with DENV2 at a multiplicity of infection (MOI) of 0.1 PFU/cell for 2 h at 37 °C. The viral titer was determined in a plaque assay in the Huh-7 cells. Then, DENV2-infected Huh-7 cells were washed with PBS and refilled, respectively, with DMEM−2% FBS medium containing […] (positive control), 0.1% DMSO (mock control), and various indicating concentration of test compounds. After incubation at 37 °C for 72 h, DENV2-infected Huh-7 cells were harvested and cell lysates were prepared for quantification of DENV RNA by RT-qPCR. Total cellular RNA was extracted using Total RNA Miniprep Purification Kit (GMbiolab, Taiwan) according to the manufacturer’s instructions.
For orientation: Real-time PCR tracks product formation cycle by cycle.

Experimental findings from paper PMC9610793, “Novel Aporphine- and Proaporphine–Clerodane Hybrids Identified from the Barks of Taiwanese Polyalthia longifolia (Sonn.) Thwaites var. pendula with Strong Anti-DENV2 Activity” (Pharmaceuticals, 2022) are described below.

As usually defined, the EC50 is the midpoint of the concentration-response curve.

SMILES strings stand for the structures. A value given as a limit tells only on which side of the number the result lay.

Turning to `COc1cc2c(cc1O)CC1c3c(cc(OC)c(OC)c3-2)CCN1C1OC(=O)C=C1CCC1(C)C(C)CCC2(C)C(C)=CCCC21` (stereo not shown) [polyalongarin C (3), Polyalongarin C], the CC50 at 72 h in data set [1] amounted to 69.1 ± 14 µM. Further, in the data set on DENV2, the “SI (selectivity index, SI = CC50/IC50)” value amounted to 21.3; the IC50 turned out to be 3.24 ± 0.16 µM; the EC50 is 2.8 to 6.4 µM.
As to `CC1=C(O)C(=O)C=C2C1=CC=C1[C@@]2(C)CC[C@@]2(C)[C@@H]3C[C@](C)(C(=O)O)CC[C@]3(C)CC[C@]12C` [Celastrol, reference compound], in the data set with DENV2, the IC50 was 0.12 ± 0.01 µM.
For the molecule `CC1=CCCC2C1(C)CCC(C)C2(C)CCC1=CC(=O)OC1N1CCc2cc3c(c4c2C1Cc1ccccc1-4)OCO3` (stereo not shown) [polyalongarin A (1), Polyalongarin A], the CC50 at 72 h in data set [1] was greater than 200 µM. Further, in the data set with DENV2, the IC50 worked out at 4.46 ± 0.12 µM and the EC50 was 2.8 to 6.4 µM.
Consider `COc1c2c3c(c(OC)c1OC)-c1ccccc1C[C@H]3N([C@@H]1OC(=O)C=C1CC[C@@]1(C)[C@H](C)CC[C@@]3(C)C(C)=CCC[C@H]13)CC2` [polyalongarin B (2), Polyalongarin B], for which the CC50 at 72 h in data set [1] came out at 50.4 ± 10.2 µM. In the data set on DENV2, the “SI (selectivity index, SI = CC50/IC50)” value was found to be 18; the IC50 was 2.8 ± 0.23 µM; the EC50 is 2.8 to 6.4 µM.
Take `COc1cc2c3c(c1OC)C1(C=CC(=O)C=C1)C[C@H]3N([C@@H]1OC(=O)C=C1CC[C@@]1(C)[C@H](C)CC[C@@]3(C)C(C)=CCC[C@H]13)CC2` [polyalongarin D (4), Polyalongarin D]: the CC50 at 72 h in data set [1] came out at 94.5 ± 10.2 µM. Moreover, in the data set on DENV2, the “SI (selectivity index, SI = CC50/IC50)” value was 14.9; the IC50 came out at 6.36 ± 0.09 µM; the EC50 fell in the range of 2.8 to 6.4 µM.
